Experimental data from patent US20260166159A1, “KRAS G12D DEGRADATION AGENT, AND PREPARATION METHOD AND USE THEREFOR” (LEADINGTAC PHARMACEUTICAL (SHAOXING) CO., LTD., priority 2022, published 2026).

Assays:
KRAS-G12D = target: T1, KRAS-G12D (Homo sapiens, UniProt P01116, G12D); assay: KRAS-G12D degradation assay (Western Blot), A-427 cells; format: cell-based; settings: A427 cells, 24 h; for Dmax: A-427
T1 construct: endogenous in cells; host or cells: A-427 (ATCC), AGS, AsPc-1, Panc 04.03
Procedure: The degradation effects of the compounds on KRAS-G12D were investigated on KRAS G12D mutant human lung cancer cell A-427 (ATCC), KRAS G12D mutant human gastric cancer cell AGS, KRAS G12D mutant human metastatic pancreatic cancer cell AsPc-1, and KRAS G12D mutant human pancreatic adenocarcinoma cell Panc 04.03. The specific procedures were as follows: 0.95 mL of cells were seeded into each well of a 24-well cell culture plate to achieve a cell density of 5×10^5 cells/well; and the cell plate was incubated in an incubator at 37° C. with 5% CO2 overnight. Then 50 μL of the compound solution after dilution was added to each of the wells with the corresponding cells, so that the final concentration of the compound was in a range of 0.03-3000 nM. The final concentration of DMSO was 0.25%. After the compounds were added, the cell plate was incubated in the incubator at 37° C. with 5% CO2 for 24 h. The culture medium in the 24-well cell culture plate was removed, and the plate was washed twice with 1×PBS (KeyGEN). 120 μL of RIPA (strong) lysis buffer (Beyotime) supplemented with 1 mM phenylmethylsulfonyl fluoride, a protease inhibitor mixture (Beyotime), and a protease phosphatase inhibitor mixture (Beyotime) was added to lyse adherent A-427 cells at the bottom of the cell culture plate. After the plate was left to stand on ice for 30 min, the protein lysate in each well was transferred to a 1.5 mL centrifuge tube and centrifuged at 15000 g for 20 min at 4° C. The cell lysate supernatants after centrifugation were cryopreserved in a refrigerator at −80° C. for later use.
After the samples of the cell lysate supernatants that had been prepared were thawed from the refrigerator at −80° C., the total protein concentrations of the cell lysates were determined using a BCA protein quantification kit (Tiangen). The total protein concentrations of the samples were then adjusted to 0.5 μg/μL with PBS and 5×SDS-PAGE protein loading buffer (Beyotime), and the samples were incubated in a water bath at 100° C. for 15 min. The samples were then incubated in an ice bath for 5 min and centrifuged at 14000 g for 1 min at 4° C., and the supernatants were mixed well as loading samples for the Western Blot assay. The samples were loaded into wells of a 10% precast gel (KeyGEN) with a loading volume of 10 μL (total protein: 5 μg), a sufficient Tris-MOPS-SDS running buffer (Adamas) was added, and then electrophoresis was performed at a constant voltage of 120 V for 55 min. After the electrophoresis, the proteins on the gel were transferred to PVDF membranes at a constant current of 250 mA for 55 min. After the membrane transfer, the PVDF membranes were incubated in 1× Quick Block blocking buffer (Beyotime) at room temperature for 30 min. After the blocking, the PVDF membranes were separately incubated at 4° C. overnight with the KRAS antibody (Abcam) diluted in a ratio of 1:1000 and the […] antibody (Abcam) diluted in a ratio of 1:2000 in 5% BSA as the diluent, and then washed with 1×TBST buffer (2.4 g of Tris, 8.8 g of NaCl, 1.5 mL of Tween 20, with pH adjusted to 7.4, with the volume brought to 1 L) 3 times for 10 min/time. The membranes were incubated with a secondary antibody (Abcam) diluted in 5% BSA at room temperature for 2 h, and then washed with 1×TBST buffer 3 times for 10 min/time. Finally, the membranes were incubated with Clarity Western ECL Substrate (BIO-RAD) for 5 min for luminescence and color development, and a ChemiScope 6200 Touch chemiluminescence imaging system (Clinx) was used for color development and protein mapping. Gray value analysis of the protein maps was performed using the chemiluminescence analysis software (Clinx). The gray correction value for each sample was calculated using the formula: gray correction value=(gray value of target protein/gray value of corresponding internal reference)×10^3. Then degradation rates were calculated by comparison with the gray correction value of the control group. […]

[1] = system: KRAS G12D mutant human lung cancer cell A427; assay: 3D cell proliferation inhibition assay, A427; format: cell-based; settings: A-427, 168 h, A427, 7 days, CTG
Description: (§1) The inhibitory effects of the compounds on 3D cell proliferation were investigated on KRAS G12D mutant human lung cancer cell A427, KRAS G12D mutant human gastric cancer cell AGS, KRAS G12D mutant human metastatic pancreatic cancer cell AsPc-1, KRAS G12D mutant human pancreatic cancer cell Panc 04.03, KRAS G12D mutant human pancreatic cancer cell HPAC, KRAS G12V mutant human lung squamous cell carcinoma cell SW900, and KRAS WT human gastric cancer cell MKN1. The specific procedures were as follows:
(§2) 10 μL of each compound solution diluted in a gradient was added to corresponding wells of a 96-well low-adsorption microplate (PerkinElmer), so that the final concentrations of the test compounds in the reaction system were in a range of 10000-0.026 nM. The final concentration of DMSO was 0.2%. Then 90 µL of cells were correspondingly seeded into each well to achieve a cell density of 5×10^2 cells/well (the cell density of SW900 was 5×10^1 cells/well, and the cell density of MKN1 was 1×10^3 cells/well). In addition to test wells for the test compounds, both a DMSO control well and a medium control well were set, with the DMSO control well containing DMSO and cells and the medium well containing only a medium. After the sample loading, the 96-well low-adsorption microplate was incubated in an incubator at 37° C. with 5% carbon dioxide for 7 days. After 7 days, the microplate was taken out, and 100 μL of CTG reagent (Promega) was added to each well. The plate was incubated at room temperature for 60 min and read on a microplate reader EnVision by the chemiluminescence program. The inhibition rates of the compounds at each concentration were calculated using the formula for the percentage inhibition of cell proliferation: inhibition rate %=(mean value of DMSO control group−single concentration reading value of compound)/(mean value of DMSO control group−mean value of medium control group)×100. Then non-linear curve fittings for logarithmic concentration-inhibition rate were performed by GraphPad Prism 8, and the IC50 values of the compounds were obtained (Table 5).

[2] = system: KRAS G12D mutant human gastric cancer cell AGS; assay: 3D cell proliferation inhibition assay, AGS; format: cell-based; settings: 168 h, 7 days, CTG
Description: as §1, §2

[3] = target: T2, Human KRAS G12D 6His-tagged (Homo sapiens, UniProt P01116, G12D); assay: KRAS-G12D/GTP binding assay (HTRF); settings: numeric values
T2 construct: purchased PerkinElmer
T2 sequence (P01116 1-188 isoform P01116-2 G12D): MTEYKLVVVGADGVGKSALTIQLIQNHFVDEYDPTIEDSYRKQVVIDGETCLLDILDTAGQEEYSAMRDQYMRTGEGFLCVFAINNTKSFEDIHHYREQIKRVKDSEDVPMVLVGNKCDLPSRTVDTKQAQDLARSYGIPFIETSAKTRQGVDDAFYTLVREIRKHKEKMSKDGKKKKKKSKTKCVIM
Procedure: In this method, the inhibitory effects of the compounds on the binding of KRAS-G12D to GTP were assayed by a homogeneous time-resolved fluorescence (HTRF) technique using a KRAS-G12D/GTP binding assay kit (PerkinElmer).
The experimental procedures were as follows (refer to the kit instructions for detailed test methods): the compounds of the present disclosure were each firstly dissolved in DMSO at a concentration of 20 mM, and then diluted in an equal gradient with a buffer in the kit, so that the final concentrations of the test compounds in the reaction system were in a range of 0.02-5000 nM, and the final concentration of DMSO was 0.5%. 5 μL of each compound was incubated with 5 μL of 1× Human KRAS G12D 6His-tagged (PerkinElmer), 5 μL of 1×6His Eu Cryptate Antibody (PerkinElmer), and 5 μL of 1×GTP Red reagent (PerkinElmer) in a 384-well plate (Greiner) at 25° C. for 1 h. After the incubation was completed, the fluorescence intensity of each well was measured at the excitation wavelength of 337 nm and the emission wavelengths of 620 nm and 665 nm with an EnVision microplate reader (PerkinElmer) in the HTRF mode, and Ratio values were calculated using the formula: Ratio=(665 nm/620 nm)×[…]. The inhibition rates of the compounds at each concentration were calculated by comparing the fluorescence intensity ratio with that of the control group. Then non-linear curve fittings for logarithmic concentration-inhibition rate were performed using the GraphPad Prism 8 analysis software, and the IC50 values of the compounds were obtained (Table 2).

T1 sequence (P01116 1-188 isoform P01116-2 G12D): as above

For C#Cc1c(F)ccc2cc(O)cc(-c3ncc4c(N5CC6CCC(C5)N6)nc(NCC5(CN6CCN(CC7CCC8(CC7)CCN(C(=O)c7ccc(C)c(N9CCC(=O)NC9=O)c7)CC8)CC6)CC5)nc4c3F)c12 [Example 44, 1-(5-(9-((4-((1-(((4-(3,8-diazabicyclo[3.2.1]octan-3-yl)-7-(8-ethynyl-7-fluoro-3-hydroxynaphthalen-1-yl)-8-fluoropyrido[4,3-d]pyrimidin-2-yl)amino)methyl)cyclopropyl)methyl)piperazin-1-yl)methyl)-3-azaspiro[5.5]undecane-3-carbonyl)-2-methylphenyl)dihydropyrimidine-2,4(1H,3H)-dione], the DC50 (KRAS-G12D; class symbols) was ≤ 50 nM, the Dmax (KRAS-G12D; class symbols) was 80 to 100% and the IC50 ([1]; class symbols) was 100 to 500 nM. The IC50 ([2]; class symbols) was ≤ 50 nM.

CCc1cccc2cc(O)cc(-c3ncc4c(N5CC6CCC(C5)N6)nc(NCC5(CN6CCN(CC7CCC8(CC7)CCN(C(=O)c7ccc(Cl)c(N9CCC(=O)NC9=O)c7)CC8)CC6)CC5)nc4c3F)c12 [Example 47, 1-(5-(9-((4-((1-(((4-(3,8-diazabicyclo[3.2.1]octan-3-yl)-7-(8-ethyl-3-hydroxynaphthalen-1-yl)-8-fluoropyrido[4,3-d]pyrimidin-2-yl)amino)methyl)cyclopropyl)methyl)piperazin-1-yl)methyl)-3-azaspiro [5.5]undecane-3-carbonyl)-2-chlorophenyl)dihydropyrimidine-2,4(1H,3H)-dione] showed a DC50 (KRAS-G12D; class symbols) of 100 to 500 nM, a Dmax (KRAS-G12D; class symbols) of 50 to 80% and an IC50 ([1]; class symbols) of 50 to 100 nM. It also gave an IC50 ([2]; class symbols) of 50 to 100 nM.

For C#Cc1c(F)ccc2cc(O)cc(-c3ncc4c(N5CC6CCC(C5)N6)nc(OCC5(CN6CCN(CC7CCC8(CC7)CCN(C(=O)c7ccc(F)c(N9CCC(=O)NC9=O)c7)CC8)CC6)CC5)nc4c3F)c12 [Example 48, 1-(5-(9-((4-((1-(((4-(3,8-diazabicyclo[3.2.1]octan-3-yl)-7-(8-ethynyl-7-fluoro-3-hydroxynaphthalen-1-yl)-8-fluoropyrido[4,3-d]pyrimidin-2-yl)oxy)methyl)cyclopropyl)methyl)piperazin-1-yl)methyl)-3-azaspiro[5.5]undecane-3-carbonyl)-2-fluorophenyl)dihydropyrimidine-2,4(1H,3H)-dione], the DC50 (KRAS-G12D; class symbols) was ≤ 50 nM, the Dmax (KRAS-G12D; class symbols) was 80 to 100% and the IC50 ([1]; class symbols) was ≤ 50 nM. The IC50 ([2]; class symbols) was ≤ 50 nM.

In the case of CCc1cccc2cc(O)cc(-c3ccc4c(N5CC6CCC(C5)N6)nc(OCC5(CN6CCN(CC7CCC8(CC7)CCN(C(=O)c7ccc(Cl)c(N9CCC(=O)NC9=O)c7)CC8)CC6)CC5)nc4c3F)c12 [Example 62, 1-(5-(9-((4-((1-(((4-(3,8-diazabicyclo[3.2.1]octan-3-yl)-7-(8-ethyl-3-hydroxynaphthalen-1-yl)-8-fluoroquinazolin-2-yl)oxy)methyl)cyclopropyl)methyl)piperazin-1-yl)methyl)-3-azaspiro[5.5]undecane-3-carbonyl)-2-chlorophenyl)dihydropyrimidine-2,4(1H,3H)-dione], the DC50 (KRAS-G12D; numeric values) is reported as 15.8 nM, the Dmax (KRAS-G12D; numeric values) is reported as 94.8% and the IC50 ([1]; numeric values) is reported as 13.1 nM. The IC50 ([2]; numeric values) was 4.98 nM.

Molecule C#Cc1c(F)ccc2cc(O)cc(-c3ncc4c(N5CC6CCC(C5)N6)nc(OCC5(CN6CCC(O)(COCCC7CCN(C(=O)c8ccc(Cl)c(N9CCC(=O)NC9=O)c8)CC7)CC6)CC5)nc4c3F)c12 [Example 63] has an IC50 [3] of 1.15 nM.

For CCc1c(F)ccc2cc(O)cc(-c3ccc4c(N5CC6CCC(C5)N6)nc(OCC5(CN6CCN(CC7CCC8(CC7)CCN(C(=O)c7ccc(Cl)c(N9CCC(=O)NC9=O)c7)CC8)CC6)CC5)nc4c3F)c12 [Example 74, 1-(5-(9-((4-((1-(((4-(3,8-diazabicyclo[3.2.1]octan-3-yl)-7-(8-ethyl-7-fluoro-3-hydroxynaphthalen-1-yl)-8-fluoroquinazolin-2-yl)oxy)methyl)cyclopropyl)methyl)piperazin-1-yl)methyl)-3-azaspiro[5.5]undecane-3-carbonyl)-2-chlorophenyl)dihydropyrimidine-2,4(1H,3H)-dione], the DC50 (KRAS-G12D; numeric values) was 38.1 nM, the Dmax (KRAS-G12D; numeric values) was 77% and the IC50 ([1]; numeric values) was 31.6 nM. It also gave an IC50 ([2]; numeric values) of 15.7 nM.

For C#Cc1cccc2cc(O)cc(-c3ccc4c(N5CC6CCC(C5)N6)nc(OCC5(CN6CCN(CC7CCC8(CC7)CCN(C(=O)c7ccc(OC)c(N9CCC(=O)NC9=O)c7)CC8)CC6)CC5)nc4c3F)c12 [Example 76, 1-(5-(9-((4-((1-(((4-(3,8-diazabicyclo[3.2.1]octan-3-yl)-7-(8-ethynyl-3-hydroxynaphthalen-1-yl)-8-fluoroquinazolin-2-yl)oxy)methyl)cyclopropyl)methyl)piperazin-1-yl)methyl)-3-azaspiro[5.5]undecane-3-carbonyl)-2-methoxyphenyl)dihydropyrimidine-2,4(1H,3H)-dione], the DC50 (KRAS-G12D; numeric values) was 1.74 nM, the Dmax (KRAS-G12D; numeric values) was 89.3% and the IC50 ([1]; numeric values) was 74.8 nM. It also gave an IC50 ([2]; numeric values) of 9.53 nM.
